EC50 and Emax data for 15 molecules are collected here from patent US20240208992A1, “MACROCYCLES AS CFTR MODULATORS” (Idorsia Pharmaceuticals Ltd, priority 2021, published 2024).

This test addresses human F508del-CFTR (Homo sapiens, UniProt P13569, DEL508-508). The test can be described thus: F508del-CFTR cell surface expression (corrector activity), DiscoveRx ß-galactosidase complementation chemiluminescence assay in recombinant U2OS cell line.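 For all read-outs here: U2OS cells co-expressing ProLink-tagged F508del-CFTR and a membrane-anchored enzyme acceptor, where more surface CFTR restores β-galactosidase activity measured by chemiluminescence.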 The following applies: U2OS cell line, 16h compound incubation; for EC50: EC50, F508del-CFTR cell surface expression, geomean values; for Emax: U2OS, in relation to the Emax of the corrector lumacaftor (=100%), arithmetic mean values.

Each structure is given as a SMILES string.

Sequence of human F508del-CFTR (P13569 with tags, fused parts or gaps DEL508-508): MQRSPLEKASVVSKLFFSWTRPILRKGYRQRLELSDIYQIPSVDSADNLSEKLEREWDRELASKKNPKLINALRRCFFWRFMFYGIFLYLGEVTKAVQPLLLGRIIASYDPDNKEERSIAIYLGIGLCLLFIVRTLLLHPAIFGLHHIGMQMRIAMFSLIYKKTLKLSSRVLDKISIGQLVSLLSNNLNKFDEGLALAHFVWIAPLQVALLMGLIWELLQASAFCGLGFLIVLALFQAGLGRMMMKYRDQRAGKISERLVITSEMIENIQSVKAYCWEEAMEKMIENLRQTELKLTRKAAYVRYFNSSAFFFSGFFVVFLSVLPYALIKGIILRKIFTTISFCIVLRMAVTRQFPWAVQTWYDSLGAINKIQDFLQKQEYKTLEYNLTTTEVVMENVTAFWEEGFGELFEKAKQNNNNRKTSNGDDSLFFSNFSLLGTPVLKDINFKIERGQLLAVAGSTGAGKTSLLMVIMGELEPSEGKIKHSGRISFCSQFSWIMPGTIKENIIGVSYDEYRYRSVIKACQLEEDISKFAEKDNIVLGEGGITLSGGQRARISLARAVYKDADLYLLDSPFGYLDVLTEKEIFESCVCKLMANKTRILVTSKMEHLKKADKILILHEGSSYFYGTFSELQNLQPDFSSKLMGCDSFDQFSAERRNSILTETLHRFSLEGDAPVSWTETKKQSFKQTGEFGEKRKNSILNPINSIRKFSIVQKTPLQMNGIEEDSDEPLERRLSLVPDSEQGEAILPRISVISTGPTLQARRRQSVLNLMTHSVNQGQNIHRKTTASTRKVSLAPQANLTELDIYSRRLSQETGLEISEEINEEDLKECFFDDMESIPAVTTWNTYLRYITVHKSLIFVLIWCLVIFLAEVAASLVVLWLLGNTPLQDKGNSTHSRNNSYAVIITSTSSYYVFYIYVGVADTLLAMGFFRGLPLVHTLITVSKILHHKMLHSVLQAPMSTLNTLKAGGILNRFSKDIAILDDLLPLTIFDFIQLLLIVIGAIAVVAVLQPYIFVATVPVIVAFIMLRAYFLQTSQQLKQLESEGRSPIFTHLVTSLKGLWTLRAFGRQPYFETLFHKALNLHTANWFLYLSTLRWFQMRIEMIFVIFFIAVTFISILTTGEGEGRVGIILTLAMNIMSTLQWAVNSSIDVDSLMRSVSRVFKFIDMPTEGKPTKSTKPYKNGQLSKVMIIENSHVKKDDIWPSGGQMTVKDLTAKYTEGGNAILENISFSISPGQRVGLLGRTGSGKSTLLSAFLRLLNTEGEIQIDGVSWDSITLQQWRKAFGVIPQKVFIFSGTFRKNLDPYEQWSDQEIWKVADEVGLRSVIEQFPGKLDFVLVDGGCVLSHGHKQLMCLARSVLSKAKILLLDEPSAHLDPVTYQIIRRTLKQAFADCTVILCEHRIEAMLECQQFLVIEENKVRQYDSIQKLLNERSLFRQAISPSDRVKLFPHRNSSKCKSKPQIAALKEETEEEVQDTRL

Take `COCCN1CCN2C(=O)[C@H](CC(C)C)N(C)C(=O)C[C@@H](C(=O)NCCc3cccc(OC)c3)NC(=O)c3c(ccc4ccccc34)OC[C@@H](Cc3ccccc3)NC(=O)[C@H]2C1` [Example 354, (4aR,7R,18S,22S)-7-benzyl-22-isobutyl-3-(2-methoxyethyl)-N-(3-methoxyphenethyl)-21-methyl-5,16,20,23-tetraoxo-2,3,4,4a,5,6,7,8,16,17,18,19,20,21,22,23-hexadecahydro-1H-naphtho[1,2-p]pyrazino[2,1-f][1]oxa[4,7,10,14]tetraazacycloheptadecine-18-carboxamide]: the concentration giving a half-maximal response (EC50) worked out at 231 nM and the Emax came to 321%.
Take `COc1cccc(CCNC(=O)[C@@H]2CC(=O)N(C)[C@@H](CC(C)C)C(=O)N3CCN(C4CCC4)C[C@@H]3C(=O)N[C@H](Cc3ccccc3)COc3ccc4ccccc4c3C(=O)N2)c1` [Example 355, (4aR,7R,18S,22S)-7-benzyl-3-cyclobutyl-22-isobutyl-N-(3-methoxyphenethyl)-21-methyl-5,16,20,23-tetraoxo-2,3,4,4a,5,6,7,8,16,17,18,19,20,21,22,23-hexadecahydro-1H-naphtho[1,2-p]pyrazino[2,1-f][1]oxa[4,7,10,14]tetraazacycloheptadecine-18-carboxamide]: the EC50 worked out at 87 nM and the Emax was found to be 307%.
With `COc1cccc(CCNC(=O)[C@@H]2CC(=O)N(C)[C@@H](CC(C)C)C(=O)N3CCN(C4CC4)C[C@@H]3C(=O)N[C@H](Cc3ccccc3)COc3ccc4ccccc4c3C(=O)N2)c1` [Example 356, (4aR,7R,18S,22S)-7-benzyl-3-cyclopropyl-22-isobutyl-N-(3-methoxyphenethyl)-21-methyl-5,16,20,23-tetraoxo-2,3,4,4a,5,6,7,8,16,17,18,19,20,21,22,23-hexadecahydro-1H-naphtho[1,2-p]pyrazino[2,1-f][1]oxa[4,7,10,14]tetraazacycloheptadecine-18-carboxamide], the EC50 was found to be 167 nM and the maximum response (Emax) amounted to 353%.
For `COc1cccc(CCNC(=O)[C@@H]2CC(=O)N(C)[C@@H](CC(C)C)C(=O)N3CCN(C4CC4)C[C@H]3C(=O)N[C@H](Cc3ccccc3)COc3ccc4ccccc4c3C(=O)N2)c1` [Example 357, (4aS,7R,18S,22S)-7-benzyl-3-cyclopropyl-22-isobutyl-N-(3-methoxyphenethyl)-21-methyl-5,16,20,23-tetraoxo-2,3,4,4a,5,6,7,8,16,17,18,19,20,21,22,23-hexadecahydro-1H-naphtho[1,2-p]pyrazino[2,1-f][1]oxa[4,7,10,14]tetraazacycloheptadecine-18-carboxamide] the same measures were 475 nM and 124%.
As to `CN1C(=O)C[C@@H](C(=O)NCCc2ccc3c(c2)OCO3)NC(=O)c2c(ccc3ccccc23)OC[C@@H](Cc2ccccc2)NC(=O)CN(CC[C@@H]2CCCCO2)C(=O)[C@@H]1CC1CC1` [Example 358, (3S,7S,13R)-N-(2-(benzo[d][1,3]dioxol-5-yl)ethyl)-13-benzyl-7-(cyclopropylmethyl)-6-methyl-1,5,8,11-tetraoxo-9-(2-((S)-tetrahydro-2H-pyran-2-yl)ethyl)-1,2,3,4,5,6,7,8,9,10,11,12,13,14-tetradecahydronaphtho[1,2-p][1]oxa[4,7,10,14]tetraazacycloheptadecine-3-carboxamide], the half-maximal effective concentration (EC50) was found to be 411 nM and the maximal response (Emax) was 171%.
As to `CN1C(=O)C[C@@H](C(=O)NCCc2ccc3c(c2)OCO3)NC(=O)c2c(ccc3ccccc23)OC[C@@H](Cc2ccccc2)NC(=O)CN(CC[C@H]2CCCCO2)C(=O)[C@@H]1CC1CC1` [Example 359, (3S,7S,13R)-N-(2-(benzo[d][1,3]dioxol-5-yl)ethyl)-13-benzyl-7-(cyclopropylmethyl)-6-methyl-1,5,8,11-tetraoxo-9-(2-((R)-tetrahydro-2H-pyran-2-yl)ethyl)-1,2,3,4,5,6,7,8,9,10,11,12,13,14-tetradecahydronaphtho[1,2-p][1]oxa[4,7,10,14]tetraazacycloheptadecine-3-carboxamide], the concentration for a half-maximal effect (EC50) was 318 nM and the maximal response (Emax) is 144%.
The matching figures for `CN1C(=O)C[C@@H](C(=O)NCCc2ccc3c(c2)OCO3)NC(=O)c2c(ccc3ccccc23)OC[C@@H](Cc2ccccc2)NC(=O)CN(CC[C@@H]2CCCCO2)C(=O)[C@@H]1CC1CCC1` [Example 360, (3S,7S,13R)-N-(2-(benzo[d][1,3]dioxol-5-yl)ethyl)-13-benzyl-7-(cyclobutylmethyl)-6-methyl-1,5,8,11-tetraoxo-9-(2-((S)-tetrahydro-2H-pyran-2-yl)ethyl)-1,2,3,4,5,6,7,8,9,10,11,12,13,14-tetradecahydronaphtho[1,2-p][1]oxa[4,7,10,14]tetraazacycloheptadecine-3-carboxamide]: 184 nM and 224%.
As to `CN1C(=O)C[C@@H](C(=O)NCCc2ccc3c(c2)OCO3)NC(=O)c2c(ccc3ccccc23)OC[C@@H](Cc2ccccc2)NC(=O)CN(CC[C@H]2CCCCO2)C(=O)[C@@H]1CC1CCC1` [Example 361, (3S,7S,13R)-N-(2-(benzo[d][1,3]dioxol-5-yl)ethyl)-13-benzyl-7-(cyclobutylmethyl)-6-methyl-1,5,8,11-tetraoxo-9-(2-((R)-tetrahydro-2H-pyran-2-yl)ethyl)-1,2,3,4,5,6,7,8,9,10,11,12,13,14-tetradecahydronaphtho[1,2-p][1]oxa[4,7,10,14]tetraazacycloheptadecine-3-carboxamide], the EC50 was found to be 264 nM and the maximal effect (Emax) was determined as 183%.
With `CC(C)C[C@H]1C(=O)N(CC[C@@H]2CCCCO2)CC(=O)N[C@H](Cc2ccccc2)COc2ccc3ccccc3c2C(=O)N[C@H](C(=O)NCCc2ccc3c(c2)OCO3)CC(=O)N1C` [Example 362, (3S,7S,13R)-N-(2-(benzo[d][1,3]dioxol-5-yl)ethyl)-13-benzyl-7-isobutyl-6-methyl-1,5,8,11-tetraoxo-9-(2-((S)-tetrahydro-2H-pyran-2-yl)ethyl)-1,2,3,4,5,6,7,8,9,10,11,12,13,14-tetradecahydronaphtho[1,2-p][1]oxa[4,7,10,14]tetraazacycloheptadecine-3-carboxamide], the EC50 came out at 153 nM and the maximal response (Emax) came to 247%.
As to `CC(C)C[C@H]1C(=O)N(CC[C@H]2CCCCO2)CC(=O)N[C@H](Cc2ccccc2)COc2ccc3ccccc3c2C(=O)N[C@H](C(=O)NCCc2ccc3c(c2)OCO3)CC(=O)N1C` [Example 363], the EC50 stood at 252 nM and the maximum response (Emax) was found to be 230%.
With `COc1cccc(CCNC(=O)[C@@H]2CC(=O)N(C)[C@@H](CC(C)C)C(=O)N3CCN(CC(C)C)C[C@@H]3C(=O)N[C@H](Cc3ccccc3)COc3ccc4ncn(C)c4c3C(=O)N2)c1` [Example 364, (8S,12S,18aR,21R)-21-benzyl-12,17-diisobutyl-N-(3-methoxyphenethyl)-5,11-dimethyl-6,10,13,19-tetraoxo-6,7,8,9,10,11,12,13,16,17,18,18a,19,20,21,22-hexadecahydro-5H,15H-imidazo[4′,5′:5,6]benzo[1,2-p]pyrazino[2,1-f][1]oxa[4,7,10,14]tetraazacycloheptadecine-8-carboxamide], the 50% effective concentration (EC50) came out at 264 nM and the maximal response (Emax) turned out to be 201%.
As for `COc1cccc(CCNC(=O)[C@@H]2CC(=O)N(C)[C@@H](CC(C)C)C(=O)N3CCCC[C@@H]3C(=O)N[C@H](Cc3ccccc3)COc3cnc4ccccc4c3C(=O)N2)c1` [Example 365, (9S,13S,19aR,22R)-22-benzyl-13-isobutyl-N-(3-methoxyphenethyl)-12-methyl-7,11,14,20-tetraoxo-7,8,9,10,11,12,13,14,17,18,19,19a,20,21,22,23-hexadecahydro-16H-pyrido[2′,1′:6,7][1]oxa[4,7,10,14]tetraazacycloheptadecino[17,16-c]quinoline-9-carboxamide], the concentration for a half-maximal effect (EC50) came out at 398 nM and the Emax was 387%.
As to `COc1cccc(CCNC(=O)[C@@H]2CC(=O)N(C)[C@@H](CC(C)C)C(=O)N3CCCC[C@H]3C(=O)N[C@H](Cc3ccccc3)COc3cnc4ccccc4c3C(=O)N2)c1` [Example 366, (9S,13S,19aS,22R)-22-benzyl-13-isobutyl-N-(3-methoxyphenethyl)-12-methyl-7,11,14,20-tetraoxo-7,8,9,10,11,12,13,14,17,18,19,19a,20,21,22,23-hexadecahydro-16H-pyrido[2′,1′:6,7][1]oxa[4,7,10,14]tetraazacycloheptadecino[17,16-c]quinoline-9-carboxamide], the EC50 stood at 265 nM and the Emax turned out to be 172%.
Turning to `Cc1cc(CCNC(=O)[C@@H]2CC(=O)N(C)[C@@H](CC(C)C)C(=O)N3CCCC[C@@H]3C(=O)N[C@H](Cc3ccccc3)COc3cnc4ccccc4c3C(=O)N2)on1` [Example 367, (9S,13S,19aR,22R)-22-benzyl-13-isobutyl-12-methyl-N-(2-(3-methylisoxazol-5-yl)ethyl)-7,11,14,20-tetraoxo-7,8,9,10,11,12,13,14,17,18,19,19a,20,21,22,23-hexadecahydro-16H-pyrido[2′,1′:6,7][1]oxa[4,7,10,14]tetraazacycloheptadecino[17,16-c]quinoline-9-carboxamide], the EC50 was 249 nM and the Emax stood at 321%.
Consider `COc1cc(CCNC(=O)[C@@H]2CC(=O)N(C)[C@@H](CC(C)C)C(=O)N3CCCC[C@@H]3C(=O)N[C@H](Cc3ccccc3)COc3ccc4oc(C)nc4c3C(=O)N2)cc(OC)c1` [Example 368, (8S,12S,18aR,21R)-21-benzyl-N-(3,5-dimethoxyphenethyl)-12-isobutyl-4,11-dimethyl-6,10,13,19-tetraoxo-6,7,8,9,10,11,12,13,16,17,18,18a,19,20,21,22-hexadecahydro-15H-oxazolo[5′,4′:5,6]benzo[1,2-p]pyrido[2,1-f][1]oxa[4,7,10,14]tetraazacycloheptadecine-8-carboxamide], for which the EC50 turned out to be 918 nM and the Emax was found to be 147%.

In general, EC50 refers to the concentration that produces a half-maximal response. By Emax is commonly meant the greatest response seen or fitted, relative to the assay's reference.
